Assay results from ChEMBL document CHEMBL1158149, “(+)-Nortrachelogenin, a new pharmacologically active lignan from Wikstroemia indica” (1979).
Calls of active or inactive are those of the source. The calls are words filed in the database; no cut-off is given here.

Key:
Mus musculus [1] = species on record: Mus musculus; experiment: Effect on central nervous system in mouse assessed as prolongation of anesthesia; type: functional
Mus musculus [2] = species on record: Mus musculus; experiment: Effect on central nervous system in mouse assessed as tranquilizing activity; type: functional, organism-based
Mus musculus [3] = species on record: Mus musculus; experiment: Effect on central nervous system in mouse assessed as muscle relaxant activity; type: functional, organism-based
Oryctolagus cuniculus = species on record: Oryctolagus cuniculus; experiment: Effect on central nervous system in rabbit assessed as depression; type: functional, organism-based

## COc1cc(C[C@@H]2COC(=O)[C@@]2(O)Cc2ccc(O)c(OC)c2)ccc1O [WIKSTROMOL]
Mus musculus [1]
  LD50: 65 mg/kg
Mus musculus [2]
  Activity: inactive
Mus musculus [3]
  Activity: inactive
Oryctolagus cuniculus
  Activity: Active
